The source of these data is patent US20240180921A1, “CDK8/19 INHIBITORS FOR THE TREATMENT OF CYTOKINE STORM” (University of South Carolina, priority 2021, published 2024).

SMILES strings stand for the structures.

The test system of test [1] is mouse cytokines: IL-1β, IL-6, IL-10, MCP-1 and TNF-α. In words: LPS-induced cytokine expression in plasma of C57BL/6 mice (MSD U-plex custom panel). It is filed as in vivo, C57BL/6 male mice. To be noted: 30 mg/kg oral gavage 2 hrs prior to LPS 10 mg/kg i.p.; plasma 2 hrs and 6 hrs after LPS. The method, then:
Cytokine storm was induced in C57BL/6 male mice by intraperitoneal (i.p.) injection of LPS (10 mg/kg). Two groups of LPS-treated mice (n=5) received 30 mg/kg 15u dissolved in 30% Propylene Glycol, 70% PEG-400 or vehicle control (5 mice per group), via oral gavage 2 hrs prior to LPS dosing. Blood was collected immediately before LPS dosing, 2 hrs after LPS and 6 hrs after LPS (at which time point the animals were euthanized). Plasma samples (1:100 dilution for 2 hr and 6 hr samples, 1:5 dilution for pre-LPS samples) were used to analyze the cytokines with the MSD U-plex custom panel for the following mouse cytokines: IL-1β, IL-6, IL-10, MCP-1 and TNF-α.

Test [2] concerns 48 human cytokines. In words: LPS-induced human cytokines in plasma of humanized mice (Human Cytokine 48-Plex Discovery Assay), Example 2. It is filed as in vivo. The conditions noted are these: plasma 6 hrs after LPS. The source says:
(§1) To test the effect of CDK8/19 inhibition on LPS-induced cytokine expression in human immune cells, we carried out a study on humanized mice transplanted with human hematopoietic stem cells; such mice contain human blood cells of myeloid and lymphoid lineages as well as mouse blood cells. We have used CIEA NOG-EXL mice (Taconic model #13395) engrafted with human umbilical cord blood-derived CD34+ hematopoietic stem cells 21 weeks before the study. All the mice were female, 25-27 weeks old, and had >45% hCD45+ cells in blood. Eight mice were treated with 1 mg/kg LPS i.p.; this dose was selected based on the finding of (38) that 12.5 μg (˜0.5 mg/kg) produced stronger cytokine induction than 50 μg (˜2 mg/kg) in humanized mice. The first group of LPS-treated mice (n=3) (G1) received vehicle alone by oral gavage 1 hr before LPS, the second group (n=3) received 15u at 30 mg/kg by oral gavage 1 hr before LPS, and the third group (n=2) (G3) received 15u at 30 mg/kg by oral gavage 0.5 hrs after LPS. Blood samples were collected from each mouse one week before LPS dosing. Mice were euthanized 6 hrs after LPS dosing and terminal blood samples were collected for cytokine analysis; in addition, spleens were collected for RNA analysis.
The effects of LPS and 15u on the expression of 48 human cytokines were measured using Human Cytokine 48-Plex Discovery Assay (Eve Technologies) using plasma samples at 1:100 dilution. […] The results of this analysis are shown in FIG. 2 for 33 of 48 cytokines that were induced by LPS>2-fold (cytokine plots are shown in the order of fold induction by LPS). […] These included 14 mediators of cytokine storm listed in Table 1: GM-CSF, IFN-γ, IL-1 (α and β), IL-6, IL-8, IL-12 (p40 and p70), IL-18, MIG/CXCL9, MIP-1 (α and β) and TNF (α and β).

Test [3] relates to 32 mouse cytokines. As to the kind of experiment: LPS-induced mouse cytokines in plasma of humanized mice (Mouse Cytokine 32-Plex Discovery Assay), Example 2. The conditions noted are these: 30 mg/kg p.o. 1 hr before LPS; plasma 6 hrs after LPS. It is filed as in vivo, humanized CIEA NOG-EXL mice.
Source text: as §1
We have also used the same plasma samples (at 1:100 dilution) to measure the expression of 32 mouse cytokines using Mouse Cytokine 32-Plex Discovery Assay (Eve Technologies).

Test [4] has as its system human cytokines associated with cytokine storm (Table 1). In words: RNA-Seq of spleens of LPS-treated humanized mice, human cytokines associated with cytokine storm. It is filed as in vivo, humanized CIEA NOG-EXL mice (human transcripts). To be noted: 6 hrs after LPS.
Source text: as §1
(§2) RNA from spleens of mice of G1-3, euthanized 6 hrs after LPS dosing, was analyzed by RNA-Seq. […]

Test [5] deals with mouse cytokines associated with cytokine storm (Table 1). As to the kind of experiment: RNA-Seq of spleens of LPS-treated humanized mice, mouse cytokines associated with cytokine storm. It is filed as in vivo, humanized CIEA NOG-EXL mice (mouse transcripts). To be noted: 6 hrs after LPS.
Source text: as §1, §2

Test [6] relates to 48 human cytokines. In words: LPS-induced human cytokines in plasma of humanized mice (Human Cytokine 48-Plex Discovery Assay), Example 3. It is filed as in vivo. The conditions noted are these: for induction of human proinflammatory cytokines by LPS: 15u 30 mg/kg p.o. or BI-1347 10 mg/kg p.o., LPS 1 mg/kg i.p., plasma 6 hrs after LPS. Here is the method: Mice were randomized into 6 groups (n=4-5), Group 1 being untreated control, Group 2 receiving 15u (a.k.a. SNX) (30 mg/kg p.o., administered as in example 2), Group 3 receiving LPS (1 mg/kg i.p.), Group 4 receiving LPS plus 15u administered 1 hr before LPS, Group 5 receiving LPS plus 15u administered 0.5 hr after LPS, and Group 6 receiving LPS plus CDK8/19 inhibitor BI-1347 (28) (10 mg/kg dissolved in 30% Propylene Glycol/70% PEG-400, p.o.) administered 1 hr before LPS. Mice were euthanized 6 hrs after LPS dosing and terminal blood samples were collected for cytokine analysis. As in Example 2, the effects of LPS and 15u on the expression of 48 human cytokines were measured using Human Cytokine 48-Plex Discovery Assay (Eve Technologies) using plasma samples at 1:100 dilution. The results of this analysis are shown in FIG. 5 for those cytokines that were induced by LPS. To assure more accurate assessment of effects of CDK8/19 inhibition on LPS-induced cytokines, 4 LPS-treated animals with low serum level (below 100 pg/mL) of IL-10, the cytokine whose LPS-mediated induction is not decreased by CDK8/19 inhibition, were excluded from the analysis (the low levels of cytokines in such animals are possibly due to insufficient administration of LPS). In this study, fewer cytokines (19 of 48) were induced by LPS than in Example 2, with many cytokines showing apparently higher expression levels in untreated mice possibly reflecting an inflammatory process that could have developed in humanized mice at the late time point (25-26 weeks) after the transplantation of CD34+ hematopoietic stem cells. Nevertheless, as in example 2, the induction of most of the LPS-induced cytokines was decreased by CDK8/19 inhibitor treatment (FIG. 5), including G-CSF, IFN-γ, IL-1 (α and β), IL-6, IL-8, MIG/CXCL9, MCP-1, MIP-1β and TNF (α and β) and IP-10. Among LPS-induced cytokines, only anti-inflammatory IL-10 was induced to a greater degree with than without CDK8/19 inhibitor treatment, an indication of anti-inflammatory activity. […]

Test [7] relates to panel of 468 kinases. To be noted: at 2000 nM, cited from earlier work.

Consider `CN(C)C(=O)c1ccc(N2CCCN(c3ccnc4sc(C(N)=O)c(N)c34)CC2)cc1` [15u, 3-amino-4-(4-(4 (dimethylcarbamoyl)phenyl)-1,4-diazepan-1-yl)thieno[2,3-b]pyridine-2-carboxamide], for which the “effect on LPS-induced expression of the assayed cytokines (IL-1β, IL-6, IL-10, MCP-1, TNF-α)” value in test [1] was “no significant effect”. Further, the “number of the most strongly LPS-induced human cytokines whose induction was suppressed” value in test [2] (30 mg/kg oral gavage 1 hr before LPS 1 mg/kg i.p.) was 24 of 27. Moreover, in test [2] (30 mg/kg p.o. 1 hr before LPS), the “LPS-induced human IP-10” value is recorded as “not inhibited”, the “LPS-induced human MCP-1” value is reported as “not inhibited”, the “LPS-induced human anti-inflammatory IL-10” value is “only borderline inhibition” and the “over-induction of human IL-10” value is given as “not over-induced”. Besides, the “induction of 14 mediators of cytokine storm: GM-CSF, IFN-γ, IL-1 (α and β), IL-6, IL-8, IL-12 (p40 and p70), IL-18, MIG/CXCL9, MIP-1 (α and β), TNF (α and β)” value in test [2] (human cytokines, 30 mg/kg p.o. 1 hr before LPS) is on record as “suppressed”. Moreover, in test [3], the “LPS-induced mouse IL-7” value is reported as “weakly inhibited”, the “LPS-induced mouse IL-10” value is “over-induced” and the “effect on LPS-induced mouse cytokines (27 of 32 induced)” value is “most of them were unaffected”. For the same molecule, the “number of human cytokines with decreased RNA amounts in spleen” value in test [4] (15u 30 mg/kg p.o. administered after LPS (G3) vs LPS alone (G1)) was 15 of 26. Besides, the “number of human cytokines with decreased RNA amounts in spleen” value in test [4] (15u 30 mg/kg p.o. administered before LPS (G2) vs LPS alone (G1)) was 18 of 26. The “number of mouse cytokines with decreased RNA in spleen” value in test [5] (15u-treated G2 or G3 relative to G1) is 3 of 27. The “number of mouse cytokines (including TNF and IL-10) with elevated RNA in spleen” value in test [5] (G2 and especially G3 relative to G1) is listed as 7. For the same molecule, in test [6] (30 mg/kg p.o., in most cases), the “suppression of proinflammatory cytokine induction, 15u administered 0.5 hours after LPS compared with 1 hour before LPS” value is recorded as “stronger”. Further, in test [6], the “induction of human proinflammatory cytokines by LPS” value is “suppressed”. Also, the “S(35) S-score” value in test [7] (S(#)=(number of non-mutant kinases with % Ctrl<#)/(number tested)) is given as “less than 0.02”. Moreover, the “S(10) S-score” value in test [7] is < 0.004.

For `CN(C)C(=O)Cn1cc(-c2ccc(-c3cncc4ccccc34)cc2)cn1` [BI-1347, 2-(4-(4-(isoquinolin-4-yl)phenyl)-1H-pyrazol-1-yl)-N,N-dimethylacetamide, reference compound], in test [6], the “induction of human proinflammatory cytokines by LPS” value is listed as “broadly suppressed”.
